Measurements from ChEMBL document CHEMBL1201862, “PubChem BioAssay data set” (2004).
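Tested at 5 concentrations; 48 h exposure; 96-well plates; endpoints linearly interpolated, else capped at highest concentration. The concentration for 50% growth inhibition is given as GI50.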 Active and inactive are the calls of the source. Rule as the data show it: active = GI50 up to about 1.1 µM and inactive = higher.

Tests used:
Test in all cases: NCI tumour cell line growth inhibition, 48 h
NCI-H460 = tested on: NCI-H460
OVCAR-8 = tested on: OVCAR-8
COLO 205 = tested on: COLO 205
NCI-H522 = tested on: NCI-H522
HCT-15 = tested on: HCT-15
A498 = tested on: A498
U-251 = tested on: U-251
NCI-H226 = tested on: NCI-H226
SF-295 = tested on: SF-295
M14 = tested on: M14
CCRF-CEM = tested on: CCRF-CEM
K562 = tested on: K562
A549 = tested on: A549
SNB-19 = tested on: SNB-19
SK-MEL-5 = tested on: SK-MEL-5
SR = tested on: SR
HT-29 = tested on: HT-29
NCI/ADR-RES = tested on: NCI/ADR-RES
NCI-H23 = tested on: NCI-H23
MOLT-4 = tested on: MOLT-4
CAKI-1 = tested on: CAKI-1
HL-60 = tested on: HL-60
DU-145 = tested on: DU-145
UACC-62 = tested on: UACC-62
SNB-75 = tested on: SNB-75
KM12 = tested on: KM12
Malme-3M = tested on: Malme-3M
UACC-257 = tested on: UACC-257
OVCAR-5 = tested on: OVCAR-5
SK-MEL-2 = tested on: SK-MEL-2
RXF 393 = tested on: RXF 393
SW-620 = tested on: SW-620
SN12C = tested on: SN12C
HOP-92 = tested on: HOP-92
MCF7 = tested on: MCF7
T47D = tested on: T47D
SK-OV-3 = tested on: SK-OV-3
HCC 2998 = tested on: HCC 2998
BT-549 = tested on: BT-549
MDA-N = tested on: MDA-N
SF-539 = tested on: SF-539
MDA-MB-435 = tested on: MDA-MB-435
EKVX = tested on: EKVX
HOP-62 = tested on: HOP-62
UO-31 = tested on: UO-31
MDA-MB-231 = tested on: MDA-MB-231
PC-3 = tested on: PC-3
IGROV-1 = tested on: IGROV-1
Hs-578T = tested on: Hs-578T
ACHN = tested on: ACHN
HCT-116 = tested on: HCT-116
SK-MEL-28 = tested on: SK-MEL-28
SF-268 = tested on: SF-268
OVCAR-4 = tested on: OVCAR-4
LOX IMVI = tested on: LOX IMVI
786-0 = tested on: 786-0
OVCAR-3 = tested on: OVCAR-3
RPMI-8226 = tested on: RPMI-8226
TK-10 = tested on: TK-10

Measured: GI50

O=C(c1c(F)c(F)c(F)c(F)c1F)c1c(F)c(F)c(F)c(F)c1F
1.55 µM: HCT-15
active: NCI-H522 0.182 µM | U-251 0.951 µM | CCRF-CEM 0.0553 µM | K562 0.316 µM | SR 0.174 µM | MOLT-4 0.171 µM | CAKI-1 0.914 µM | HL-60 0.48 µM | KM12 0.535 µM | SW-620 1.06 µM | MCF7 0.299 µM | SF-539 1.09 µM | LOX IMVI 0.71 µM | 786-0 0.476 µM | OVCAR-3 0.979 µM | RPMI-8226 0.0528 µM
inactive: NCI-H460 2.25 µM | OVCAR-8 1.5 µM | COLO 205 1.45 µM | A498 3.06 µM | NCI-H226 3.51 µM | SF-295 2.55 µM | M14 2.1 µM | A549 3.53 µM | SNB-19 4.06 µM | SK-MEL-5 2.82 µM | HT-29 1.32 µM | NCI/ADR-RES 3.13 µM | NCI-H23 2.48 µM | DU-145 1.96 µM | UACC-62 1.92 µM | SNB-75 1.98 µM | Malme-3M 1.52 µM | UACC-257 1.84 µM | OVCAR-5 1.9 µM | SK-MEL-2 2.24 µM | RXF 393 1.55 µM | SN12C 1.87 µM | HOP-92 1.83 µM | T47D 1.69 µM | SK-OV-3 2.39 µM | HCC 2998 1.67 µM | BT-549 2.46 µM | MDA-N 1.43 µM | MDA-MB-435 1.56 µM | EKVX 1.96 µM | HOP-62 1.81 µM | UO-31 1.23 µM | MDA-MB-231 1.85 µM | PC-3 1.62 µM | IGROV-1 1.3 µM | Hs-578T 2.69 µM | ACHN 1.7 µM | HCT-116 1.51 µM | SK-MEL-28 2.88 µM | SF-268 2.55 µM | OVCAR-4 1.75 µM | TK-10 1.19 µM

COC(=O)C1=C(OC(=O)/C(=C/c2ccccc2)c2ccc(Cl)cc2)C(C(=O)OC)[C@@]2(O)[C@@H](C(=O)OC)[C@H](C)C[C@@H]1[C@@H]2C(=O)OC (stereo partly drawn)
inactive: NCI-H460 > 100 µM | OVCAR-8 > 100 µM | COLO 205 > 100 µM | NCI-H522 > 100 µM | A498 > 100 µM | U-251 > 100 µM | NCI-H226 > 100 µM | SF-295 > 100 µM | M14 > 100 µM | CCRF-CEM > 100 µM | K562 2.37 µM | A549 > 100 µM | SNB-19 > 100 µM | SK-MEL-5 > 100 µM | SR > 100 µM | HT-29 > 100 µM | NCI/ADR-RES > 100 µM | NCI-H23 > 100 µM | MOLT-4 79.3 µM | CAKI-1 > 100 µM | HL-60 > 100 µM | DU-145 > 100 µM | UACC-62 > 100 µM | SNB-75 > 100 µM | KM12 > 100 µM | Malme-3M > 100 µM | UACC-257 > 100 µM | OVCAR-5 > 100 µM | SK-MEL-2 > 100 µM | RXF 393 > 100 µM | SW-620 > 100 µM | SN12C > 100 µM | HOP-92 29.1 µM | MCF7 > 100 µM | T47D > 100 µM | SK-OV-3 > 100 µM | HCC 2998 > 100 µM | BT-549 > 100 µM | MDA-N > 100 µM | SF-539 > 100 µM | MDA-MB-435 > 100 µM | EKVX > 100 µM | HOP-62 > 100 µM | UO-31 > 100 µM | MDA-MB-231 > 100 µM | PC-3 > 100 µM | IGROV-1 > 100 µM | Hs-578T > 100 µM | ACHN > 100 µM | HCT-116 > 100 µM | SK-MEL-28 > 100 µM | SF-268 > 100 µM | OVCAR-4 > 100 µM | LOX IMVI > 100 µM | 786-0 > 100 µM | OVCAR-3 > 100 µM | RPMI-8226 > 100 µM | TK-10 > 100 µM
> 100 µM: HCT-15
